We go through five compounds from paper PMC12916490 (Molecular Psychiatry, 2025).

Experiment [1] has as its system C57BL/6 J mice. Put plainly: Body temperature change in mice (dose-response sessions). Type of experiment: in vivo, mouse. As to conditions: pre to post 30-min session, mean ± SEM. The protocol:
(§1) Behavioral studies were conducted as previously described with minor modifications. Male C57BL/6 J mice (The Jackson Laboratory #000664, 24 mice/drug) were purchased at 8 weeks old, group housed for acclimation (3–5 per cage for 1–2 weeks) under a 12:12 light:dark cycle (07:00 local time = lights on), with ad libitum access to food and water at the NIDA IRP facilities in Baltimore, MD, USA. All experiments were approved by the NIDA IRP Animal Care and Use Committee. After acclimation to the vivarium facilities, each mouse was briefly anesthetized with isoflurane and a temperature transponder (14 × 2 mm, model IPTT-300, Bio Medic Data Systems, Inc., Seaford, DE, USA) was implanted subcutaneously (s.c.) on the back, posterior to the shoulder blades. After the implant, mice were single housed and allowed one week recovery prior to the start of experiments. […] Drugs were randomly assigned and administered s.c. as the weight of the form used at an injection volume of 0.01 mL/g body weight.
(§2) During experimental testing, mice were tested once every 1–2 weeks to avoid potential tolerance to behavioral effects of the test drugs and were tested 2–3 times in total per drug. Each test session began with a brief 5 min acclimation period to the testing arenas, followed by recording baseline body temperature using a handheld wand that was sensitive to the signals emitted from the s.c. transponder. After this, mice were injected s.c. with appropriate doses of test drug and returned to the chambers for a 30-min test session. During the dose-response sessions, locomotor activity was continuously recorded using open field chambers with photobeam arrays (Coulbourn Instruments, Holliston, MA, USA) that were modified with cylindrical inserts and custom floor panels that also allowed video recordings of each mouse to later quantify HTR activity (GoPro Hero 7 camera; 960p resolution at 120 frames per second). Videos for each mouse were analyzed post session using commercially available software used to quantify HTR as previously described.
(§3) Data analysis was performed with Prism software (version 10.1.2, GraphPad Software, Boston, MA, USA). The IC50 values from the radioligand binding assays were determined by nonlinear regression, using three independent concentration-response curves fitted to a one-site model. The Cheng-Prusoff equation was used to calculate Kᵢ values for the competing ligands. EC50 values were determined by applying nonlinear regression to concentration-response curves. Bias factors (β) were calculated based on the relative intrinsic activity approach. More detailed information can be found in the Supplementary information. Mean values for total number of HTR, change in body temperature from pre to post session (Δ°C), and total distance traveled (cm) for each drug dose were compared (p < 0.05) via Welch’s ANOVA with Dunnett’s T3 post test, comparing all doses to respective vehicle controls (0 mg/kg). Welch’s ANOVA with Dunnett’s T3 post test was also used to compare drug concentrations, but the data were compared to DOM in this case. Dose–response relationships for HTR and locomotor activities were plotted using bell-shaped curve fits, while temperature change data were plotted using four-parameter non-linear regression curve fits. The ascending phase of the HTR curve for each drug was used to determine ED50 potency values from four parameter non-linear regression fits. For combined DOM and DOAM administration, the plasma, brain tissue, and brain dialysate drug concentrations were compared using paired t-tests (p < 0.05). Ratios were compared using Holm-Sidak’s post hoc test following a repeated-measures one-way ANOVA (F (1.709, 6.835) = 70.80; p < 0.0001).
(§4) Locomotor activity and body temperature were also assessed to monitor other pharmacological effects of the drugs that may impact the HTR. […]

In another experiment the target is T1, hD2 (Homo sapiens, UniProt P14416).
T1 construct: expressed in transfected cells; host or cells: HEK 293 cells (membrane preparation)
T1 sequence (P14416 whole entry): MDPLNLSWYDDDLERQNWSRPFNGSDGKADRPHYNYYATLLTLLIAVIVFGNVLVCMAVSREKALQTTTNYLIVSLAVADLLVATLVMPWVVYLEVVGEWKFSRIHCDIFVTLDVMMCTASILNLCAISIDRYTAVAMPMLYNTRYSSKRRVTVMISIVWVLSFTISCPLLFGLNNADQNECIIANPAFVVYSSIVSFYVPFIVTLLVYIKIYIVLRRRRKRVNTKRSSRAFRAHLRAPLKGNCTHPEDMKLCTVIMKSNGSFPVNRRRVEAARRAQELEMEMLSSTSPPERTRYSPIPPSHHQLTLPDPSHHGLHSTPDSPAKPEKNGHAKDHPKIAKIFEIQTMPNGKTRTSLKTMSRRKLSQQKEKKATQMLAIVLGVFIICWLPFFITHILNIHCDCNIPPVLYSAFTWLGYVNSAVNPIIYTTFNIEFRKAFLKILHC
In words: Radioligand binding, hD2 receptor ([3H]spiperone). The protocol: Binding affinities at human monoamine receptors and transporters were assessed as previously reported. A detailed description of the methodology is provided in the Supplementary information.
as §3
3.1 Assessment of receptor and transporter binding affinities
Membrane preparations were prepared from cells transfected with the respective target. The membrane preparations were then incubated with selective radioligands at concentrations equal to the corresponding Kd and displacement of the ligand by the drugs was measured. The difference between total binding and nonspecific binding (determined in the presence of selective competitors) was defined as specific binding of the radioligand to the target receptor. The following transfected cell lines were used for the binding assays: HEK 293 cells (h5-HT1A, h5-HT2A, h5-HT2B, h5-HT2C, and hD2 receptors, hDAT, hNET, and hSERT), Chinese hamster ovary cells (hα 1A receptor), and Chinese hamster lung cells (hα 2A receptor).
3.1.1 Membrane preparations for receptor and transporter binding
For producing membrane preparations, transfected cells were harvested with trypsin/EDTA, washed with ice-cold phosphate buffered saline, and then pelleted by centrifugation (210 × g for 5 min at 4 °C). The pellets were frozen and stored at -80 °C until use. Frozen pellets were resuspended in 20 m L (receptor binding) or 400 m L (transporter binding) buffer (20 mM HEPES -NaOH, 10 mM EDTA, pH 7.4), and homogenized at 1,100 × g for 20 s (receptor binding) or 560 × g for 15 s (transporter binding); the homogenates were then centrifuged at 48,000 × g for 30 min at 4 °C. […]
Competitive binding at the h5-HT1A and h5-HT2A receptor was determined using 0.90 nM [ 3H]8-hydroxy-2-(di-n-propylamine)tetralin ([ 3H]8-OH-DPAT; h5-HT1A receptor agonist) and 0.40 nM [3H]ketanserin (h5-HT2 receptor antagonist) as radioligands. […]

Experiment [2] has as its system C57BL/6 J mice. In words: Head-twitch response (HTR) dose-response in mice, 30-min session. Particulars: for HTR (count/30 min): mean ± SEM; for ED50: Mus musculus, sc, 0.5 h, read-out: HTR in mice ED50 (95% CI), ascending phase of dose-response curve; for ED50 / HTR in mice Emax / HTR in mice Maximum rate: s.c., 30 min session. Type of experiment: in vivo, mouse. The protocol: as §1, §2, §3, §4

In general, Ki refers to a dissociation constant, usually derived from enzyme kinetics or from competition with a known ligand. Read a low Ki as tighter binding. A word on the ED50: it is the dose at which the effect has come halfway, by size or by number of responders.

As to `CCCCc1cc(OC)c(CC(C)N)cc1OC` (stereo not drawn) [DOBU, 4-butyl-2,5-dimethoxyamphetamine], the ΔTemperature with C57BL/6 J mice [1] (0.03 mg/kg s.c.) is -0.1 ± 0.1 °C; in the experiment on C57BL/6 J mice [1] (0.1 mg/kg s.c.), -0.1 ± 0.2 °C; in the experiment on C57BL/6 J mice [1] (0.3 mg/kg s.c.), 0.1 ± 0.1 °C; with C57BL/6 J mice [1] (1 mg/kg s.c.) it was -0.4 ± 0.1 °C; with C57BL/6 J mice [1] (3 mg/kg s.c.), -0.3 ± 0.2 °C; in the experiment on C57BL/6 J mice [1] (10 mg/kg s.c.), -1.7 ± 0.6 °C. Also, the ΔTemperature in the experiment on C57BL/6 J mice [1] (30 mg/kg s.c.) is -5.5 ± 0.4 °C. Also, the Ki on hD2 is > 13 µM. Also, the “HTR (count/30 min)” value amounted to 6.0 ± 0.9 count in the experiment on C57BL/6 J mice [2] (0.03 mg/kg s.c.); 9.0 ± 1.7 count in the experiment with C57BL/6 J mice [2] (0.1 mg/kg s.c.); 12.7 ± 1.3 count with C57BL/6 J mice [2] (0.3 mg/kg s.c.); 40.2 ± 2.9 count in the experiment on C57BL/6 J mice [2] (1 mg/kg s.c.); 78.7 ± 6.2 count in the experiment with C57BL/6 J mice [2] (3 mg/kg s.c.); 69.3 ± 4.7 count in the experiment on C57BL/6 J mice [2] (10 mg/kg s.c.). The “HTR (count/30 min)” value in the experiment with C57BL/6 J mice [2] (30 mg/kg s.c.) is on record as 17.5 ± 4.5 count. The ED50 in the experiment with C57BL/6 J mice [2] came out at 1.29 mg/kg. Also, in the experiment with C57BL/6 J mice [2], the “HTR in mice Emax” value is recorded as 79 total HTR count. The “HTR in mice Maximum rate” value in the experiment with C57BL/6 J mice [2] is on record as 16 HTR count/5 min.

On to `COc1ccc(OC)c(CC(C)N)c1.Cl` (stereo not drawn) [2,5-DMA, 2,5-Dimethoxyamphetamine hydrochloride], for which the ΔTemperature is 0.4 ± 0.1 °C in the experiment on C57BL/6 J mice [1] (0.03 mg/kg s.c.); 0.3 ± 0.1 °C in the experiment on C57BL/6 J mice [1] (0.1 mg/kg s.c.); 0.5 ± 0.1 °C with C57BL/6 J mice [1] (0.3 mg/kg s.c.); 0.2 ± 0.1 °C in the experiment with C57BL/6 J mice [1] (1 mg/kg s.c.); 0.2 ± 0.2 °C in the experiment on C57BL/6 J mice [1] (3 mg/kg s.c.); -0.9 ± 0.2 °C in the experiment with C57BL/6 J mice [1] (10 mg/kg s.c.). The ΔTemperature with C57BL/6 J mice [1] (30 mg/kg s.c.) was -4.0 ± 0.5 °C. The Ki at hD2 is > 13 µM. Moreover, the “HTR (count/30 min)” value with C57BL/6 J mice [2] (0.03 mg/kg s.c.) turned out to be 5.8 ± 1.9 count; with C57BL/6 J mice [2] (0.1 mg/kg s.c.) it was 6.7 ± 0.7 count; in the experiment on C57BL/6 J mice [2] (0.3 mg/kg s.c.), 7.3 ± 1.2 count; with C57BL/6 J mice [2] (1 mg/kg s.c.), 11.7 ± 2.1 count; in the experiment on C57BL/6 J mice [2] (3 mg/kg s.c.) it was 15.3 ± 0.6 count; in the experiment with C57BL/6 J mice [2] (10 mg/kg s.c.) it was 23.2 ± 1.9 count. In the experiment with C57BL/6 J mice [2] (30 mg/kg s.c.), the “HTR (count/30 min)” value came out at 16.2 ± 5.0 count. Also, in the experiment with C57BL/6 J mice [2], the ED50 was 1.39 mg/kg. Further, in the experiment with C57BL/6 J mice [2], the “HTR in mice Emax” value was found to be 23 total HTR count. Besides, the “HTR in mice Maximum rate” value in the experiment on C57BL/6 J mice [2] is 5 HTR count/5 min.

Consider `CCCCCc1cc(OC)c(CC(C)N)cc1OC` (stereo not drawn) [DOAM, 4-amyl-2,5-dimethoxyamphetamine], for which the ΔTemperature is 0.0 ± 0.1 °C in the experiment on C57BL/6 J mice [1] (0.03 mg/kg s.c.); 0.0 ± 0.1 °C in the experiment on C57BL/6 J mice [1] (0.1 mg/kg s.c.); -0.3 ± 0.2 °C in the experiment on C57BL/6 J mice [1] (0.3 mg/kg s.c.); -0.1 ± 0.2 °C in the experiment with C57BL/6 J mice [1] (1 mg/kg s.c.); -0.2 ± 0.1 °C in the experiment on C57BL/6 J mice [1] (3 mg/kg s.c.); -0.2 ± 0.2 °C with C57BL/6 J mice [1] (10 mg/kg s.c.). In the experiment with C57BL/6 J mice [1] (30 mg/kg s.c.), the ΔTemperature was -3.9 ± 0.4 °C. At hD2, the Ki is > 13 µM. Also, the “HTR (count/30 min)” value turned out to be 7.8 ± 1.6 count with C57BL/6 J mice [2] (0.03 mg/kg s.c.); 6.2 ± 1.6 count in the experiment with C57BL/6 J mice [2] (0.1 mg/kg s.c.); 6.5 ± 1.2 count with C57BL/6 J mice [2] (0.3 mg/kg s.c.); 9.5 ± 1.2 count in the experiment on C57BL/6 J mice [2] (1 mg/kg s.c.); 28.5 ± 2.6 count in the experiment with C57BL/6 J mice [2] (3 mg/kg s.c.); 44.8 ± 3.6 count with C57BL/6 J mice [2] (10 mg/kg s.c.). The “HTR (count/30 min)” value in the experiment on C57BL/6 J mice [2] (30 mg/kg s.c.) stood at 26.0 ± 3.7 count. Moreover, the ED50 with C57BL/6 J mice [2] came out at 2.76 mg/kg. For the same compound, the “HTR in mice Emax” value in the experiment with C57BL/6 J mice [2] is on record as 45 total HTR count. Moreover, in the experiment with C57BL/6 J mice [2], the “HTR in mice Maximum rate” value is on record as 9 HTR count/5 min.

On to `CCc1cc(OC)c(CC(C)N)cc1OC` (stereo not drawn) [DOET, 4-ethyl-2,5-dimethoxyamphetamine], for which the Ki on hD2 was > 13 µM.

For the compound `CCCc1cc(OC)c(CC(C)N)cc1OC.Cl` (stereo not drawn) [DOPR, 4-propyl-2,5-dimethoxyamphetamine hydrochloride], the ΔTemperature in the experiment with C57BL/6 J mice [1] (0.01 mg/kg s.c.) was 0.3 ± 0.2 °C; in the experiment with C57BL/6 J mice [1] (0.03 mg/kg s.c.), 0.1 ± 0.1 °C; in the experiment with C57BL/6 J mice [1] (0.1 mg/kg s.c.), 0.1 ± 0.2 °C; in the experiment on C57BL/6 J mice [1] (0.3 mg/kg s.c.), 0.0 ± 0.2 °C; in the experiment on C57BL/6 J mice [1] (1 mg/kg s.c.) it was -0.1 ± 0.1 °C; in the experiment with C57BL/6 J mice [1] (3 mg/kg s.c.), -3.0 ± 0.6 °C. Moreover, the ΔTemperature in the experiment on C57BL/6 J mice [1] (10 mg/kg s.c.) was -4.9 ± 0.5 °C. In addition, the “HTR (count/30 min)” value in the experiment on C57BL/6 J mice [2] (0.01 mg/kg s.c.) is given as 6.2 ± 0.9 count; in the experiment on C57BL/6 J mice [2] (0.03 mg/kg s.c.) it was 9.7 ± 2.2 count; in the experiment on C57BL/6 J mice [2] (0.1 mg/kg s.c.), 22.7 ± 2.8 count; in the experiment with C57BL/6 J mice [2] (0.3 mg/kg s.c.) it was 53.6 ± 2.9 count; in the experiment on C57BL/6 J mice [2] (1 mg/kg s.c.), 98.2 ± 2.3 count; in the experiment on C57BL/6 J mice [2] (3 mg/kg s.c.), 58.0 ± 9.6 count. The “HTR (count/30 min)” value with C57BL/6 J mice [2] (10 mg/kg s.c.) is recorded as 21.2 ± 3.0 count. In the experiment on C57BL/6 J mice [2], the ED50 came out at 0.42 mg/kg. Besides, the “HTR in mice Emax” value with C57BL/6 J mice [2] was found to be 98 total HTR count. Also, the “HTR in mice Maximum rate” value in the experiment on C57BL/6 J mice [2] came to 20 HTR count/5 min.
